Data set [1] concerns the target T1, 5-HT2A receptor (Homo sapiens, UniProt P28223). Description: biochemical. It is filed as binding. On the set-up: expressed in transfected cells; host or cells: HEK293, stably transfected. Particulars: [3H]ketanserin 1 nM; HEK293 stable cell line; 1 h, 25 °C. The method, then:
Affinity of the test compounds for the 5-HT2A receptor was determined in radioligand binding experiments with [^3H]ketanserin by WuXi AppTec (Hong Kong) Limited, using methods adapted from the literature and under conditions described in Table 1.

For a further data set, the target named is T2, 5-HT1A receptor (Homo sapiens, UniProt P08908).
T2 construct: expressed in transfected cells; host or cells: CHO cells, stably transfected
T2 sequence (P08908 1-422): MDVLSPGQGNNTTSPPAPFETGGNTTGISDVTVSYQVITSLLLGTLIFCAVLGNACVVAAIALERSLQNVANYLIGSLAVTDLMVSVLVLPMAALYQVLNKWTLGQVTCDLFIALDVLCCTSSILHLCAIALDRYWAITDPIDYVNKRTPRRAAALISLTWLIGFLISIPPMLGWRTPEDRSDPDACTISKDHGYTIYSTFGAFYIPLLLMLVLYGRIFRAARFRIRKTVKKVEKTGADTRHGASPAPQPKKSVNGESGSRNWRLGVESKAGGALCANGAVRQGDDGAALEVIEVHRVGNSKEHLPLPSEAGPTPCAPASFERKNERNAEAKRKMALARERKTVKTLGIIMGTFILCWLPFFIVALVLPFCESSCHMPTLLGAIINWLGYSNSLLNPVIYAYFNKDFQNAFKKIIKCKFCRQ
Description: cell-based. To be noted: agonist, Ca2+ flux; for Emax: CHO, read-out: 5-HT1A % Act @ Max Dose; for EC50: CHO cells with Gα15. How it is done: (§1) Functional Assays at 5-HT2A, 5-HT2B, and 5-HT1A. Agonist activity at 5-HT2A, 5-HT2B, 5HT2C and 5-HT1A receptors was determined using a FLIPR Ca^2+ flux assay at WuXi AppTec (Hong Kong) Limited according to their standard protocols. Briefly, stably transfected cells expressing the receptor of interest and Gα15 in the case of 5-HT1A (HEK293 for 5-HT2A and 5-HT2B; CHO cells for 5-HT1A) were grown and plated in a 384 well plate and incubated at 37° C. and 5% CO2 overnight. A solution of 250 mM probenecid in 1 mL FLIPR assay buffer was prepared fresh. This was combined with a fluorescent dye (Fluo-4 Direct™) to make a final assay concentration of 2.5 mM. […] The fluorescent dye was then added to the assay plate along with assay buffer to a final volume of 40 μL. The cell plate was incubated for 50 min at 37° C. and 5% CO2 and placed into the FLIPR Tetra along with the compound plate. 10 μL of references and compounds were then transferred from the compound plate into the cell plate and the fluorescent signal was read.
In general terms: A change in cytosolic calcium serves as a functional read-out for many receptors and channels.

For data set [2], the target named is T1, 5-HT2A receptor. Description: cell-based. On the set-up: expressed in transfected cells; host or cells: HEK293, stably transfected. To be noted: Ca2+ flux; for EC50: HEK293; for Emax: HEK293, agonist, read-out: 5-HT2A % Act @ Max Dose. It is filed as cell-based. The method, then: as §1
The nature of data set [3]: in vitro. The data set is classed as in vitro ADME, human. Particulars: human, microsomes, HLM 0.50 mg/mL, NADPH 1 mM, 1 μM compound, pH 7.4, 37° C., 60 min; for microsomal CLint: read-out: Intrinsic clearance (Clint); for half-life: read-out: half-life (t1/2).
The nature of data set [4]: in vitro. Particulars: rat, microsomes, RLM (male Sprague-Dawley) 0.50 mg/mL, NADPH 1 mM, 1 μM compound, pH 7.4, 37° C., 60 min; for microsomal CLint: read-out: Intrinsic clearance (Clint); for half-life: read-out: half-life (t1/2). It is filed as in vitro ADME, rat. The source says:
RLM Stability Pooled RLM from male Sprague-Dawley rats (Xenotech R1000) were used.

Data set [5] is described as follows: in vitro. It is filed as in vitro ADME, mouse. Particulars: mouse, microsomes, MLM (male CD-1) 0.50 mg/mL, NADPH 1 mM, 1 μM compound, pH 7.4, 37° C., 60 min; for microsomal CLint: read-out: Intrinsic clearance (Clint); for half-life: read-out: half-life (t1/2). An excerpt:
MLM Stability Pooled MLM from male CD-1 mice (BIOIVT M00501) were used.

The target in the next data set is T3, 5-HT2B receptor (Homo sapiens, UniProt P41595).
T3 construct: expressed in transfected cells; host or cells: HEK293, stably transfected
Description: cell-based. The data set is classed as cell-based. Particulars: Ca2+ flux; for Emax: HEK293, agonist, HEK293, max dose, read-out: 5-HT2B % Act @ Max Dose; for EC50: agonist, HEK293. The method, then: as §1

Where “and” joins values, the source holds several entries; their conditions need not be identical. Equal values may be shown once. Read-outs that look alike come from different tables or passages of the source.

T3 sequence (P41595 whole entry): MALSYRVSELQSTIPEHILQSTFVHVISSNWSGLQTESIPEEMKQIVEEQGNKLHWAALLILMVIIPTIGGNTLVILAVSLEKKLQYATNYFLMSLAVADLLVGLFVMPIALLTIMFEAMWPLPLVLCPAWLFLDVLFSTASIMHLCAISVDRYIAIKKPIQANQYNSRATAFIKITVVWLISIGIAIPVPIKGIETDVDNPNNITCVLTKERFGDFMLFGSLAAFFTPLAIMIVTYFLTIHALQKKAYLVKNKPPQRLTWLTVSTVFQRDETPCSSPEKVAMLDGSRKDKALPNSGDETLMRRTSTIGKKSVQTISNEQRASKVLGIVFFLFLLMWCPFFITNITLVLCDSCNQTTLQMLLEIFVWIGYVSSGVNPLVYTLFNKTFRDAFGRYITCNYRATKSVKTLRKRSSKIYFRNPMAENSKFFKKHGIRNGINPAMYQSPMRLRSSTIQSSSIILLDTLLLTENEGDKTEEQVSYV
T1 sequence (P28223 whole entry): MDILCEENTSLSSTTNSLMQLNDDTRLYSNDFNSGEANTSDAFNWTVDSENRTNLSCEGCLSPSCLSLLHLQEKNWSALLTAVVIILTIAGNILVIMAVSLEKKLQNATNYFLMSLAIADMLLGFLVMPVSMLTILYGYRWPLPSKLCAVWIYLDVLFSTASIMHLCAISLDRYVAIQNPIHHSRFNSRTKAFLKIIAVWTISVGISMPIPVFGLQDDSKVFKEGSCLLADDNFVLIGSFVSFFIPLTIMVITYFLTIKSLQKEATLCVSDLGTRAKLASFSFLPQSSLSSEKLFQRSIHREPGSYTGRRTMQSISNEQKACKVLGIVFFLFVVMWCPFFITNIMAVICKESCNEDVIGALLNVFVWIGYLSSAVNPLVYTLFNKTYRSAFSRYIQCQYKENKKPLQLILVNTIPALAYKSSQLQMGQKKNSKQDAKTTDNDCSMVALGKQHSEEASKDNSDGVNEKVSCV

Consider `CCN(CC)C(=O)[C@@H]1C=C2c3cccc4[nH]cc(c34)C[C@H]2N(Cc2ncco2)C1` [Compound 74, (6aR,9R)—N,N-diethyl-7-(oxazol-2-ylmethyl)-4,6,6a,7,8,9-hexahydroindolo[4,3-fg]quinoline-9-carboxamide], for which the Ki (commonly a measure of affinity in units of concentration, obtained from inhibition or displacement) on 5-HT2A receptor [1] turned out to be 52.5 nM. The “5-HT1A % Act @ Max Dose” value on 5-HT1A receptor (CHO cells with Gα15, max dose) is 51.28% and 82.73%. For the same compound, on 5-HT2A receptor [2] (agonist), the EC50 (as a rule, the concentration that produces a half-maximal response) is 289 nM and 54.3 nM. In addition, at 5-HT2A receptor [2] (agonist, HEK293, max dose), the “5-HT2A % Act @ Max Dose” value is 63% and 89.01%. The results for the microsomal CLint in the data set “in vitro [3]”, in the data set “in vitro [4]” and in the data set “in vitro [5]” were 45.5 µL/min/mg, 71.7 µL/min/mg and 83.3 µL/min/mg, respectively. Besides, the values for the half-life in the data set “in vitro [3]”, in the data set “in vitro [4]” and in “in vitro [5]” were 30.5 min, 19.3 min and 16.6 min, respectively.

In the case of `O=C([C@@H]1C=C2c3cccc4[nH]cc(c34)C[C@H]2N(Cc2ccccc2)C1)N1CCCC1` [Compound 84, ((6aR,9R)-7-benzyl-4,6,6a,7,8,9-hexahydroindolo[4,3-fg]quinolin-9-yl)(pyrrolidin-1-yl)methanone], on 5-HT2A receptor [1], the Ki worked out at 17.8 nM. In addition, the Emax at 5-HT2B receptor is 5.16%; on 5-HT1A receptor (CHO cells with Gα15, max dose), 40.3%; on 5-HT2A receptor [2] (HEK293, max dose), 68.9%. The figures for the EC50 at 5-HT2B receptor, on 5-HT1A receptor and at 5-HT2A receptor [2] (agonist) were > 10000 nM, 1690 nM and 895 nM, respectively. In addition, the microsomal CLint in the data set “in vitro [3]” stood at 89.7 µL/min/mg; in “in vitro [4]” it was 101 µL/min/mg; in “in vitro [5]”, 146 µL/min/mg. The half-life in the data set “in vitro [3]” was determined as 15.5 min; in “in vitro [4]”, 13.7 min; in “in vitro [5]”, 9.5 min.

For the compound `CCCN(CC)C(=O)[C@@H]1C=C2c3cccc4[nH]cc(c34)C[C@H]2N(Cc2ccccc2)C1` [Compound 86, (6aR,9R)-7-benzyl-N-ethyl-N-propyl-4,6,6a,7,8,9-hexahydroindolo[4,3-fg]quinoline-9-carboxamide], the Ki on 5-HT2A receptor [1] is 1.6 nM. Besides, the Emax on 5-HT2B receptor came to 7.82%; at 5-HT1A receptor (CHO cells with Gα15, max dose), 49.1%; at 5-HT2A receptor [2] (HEK293, max dose), 67%. Besides, the EC50 on 5-HT2B receptor amounted to 1280 nM; at 5-HT1A receptor, 15500 nM; on 5-HT2A receptor [2] (agonist), 933 nM. Also, the microsomal CLint in “in vitro [3]” turned out to be 128 µL/min/mg; in “in vitro [4]”, 117 µL/min/mg; in “in vitro [5]” it was 380 µL/min/mg. In addition, the half-life came to 10.9 min in the data set “in vitro [3]”, 11.9 min in “in vitro [4]” and 3.6 min in “in vitro [5]”.

On 5-HT2A receptor [1], `CCCN(CC)C(=O)[C@H]1C=C2c3cccc4[nH]cc(c34)C[C@H]2N(Cc2ccccc2)C1` [Compound 86a, (6aR,9S)-7-benzyl-N-ethyl-N-propyl-4,6,6a,7,8,9-hexahydroindolo[4,3-fg]quinoline-9-carboxamide] came in with a Ki of 671 nM. For the same compound, the figures for the microsomal CLint in “in vitro [3]”, in “in vitro [4]” and in “in vitro [5]” were 95.2 µL/min/mg, 330 µL/min/mg and 1010 µL/min/mg, respectively. Besides, the half-life was determined as 14.6 min in the data set “in vitro [3]”, 4.2 min in the data set “in vitro [4]” and 1.4 min in “in vitro [5]”.

`C[C@H]1C[C@H](C)N1C(=O)[C@@H]1C=C2c3cccc4[nH]cc(c34)C[C@H]2N(Cc2ccccc2)C1` [Compound 87, ((6aR,9R)-7-benzyl-4,6,6a,7,8,9-hexahydroindolo[4,3-fg]quinolin-9-yl)((2S,4S)-2,4-dimethylazetidin-1-yl)methanone]: on 5-HT2A receptor [1], the Ki came to 2.1 nM. In addition, the Emax at 5-HT2B receptor came out at 10%; on 5-HT1A receptor (CHO cells with Gα15, max dose), 58.2%; on 5-HT2A receptor [2] (HEK293, max dose), 61.2%. The EC50 at 5-HT2B receptor was > 3000 nM; on 5-HT1A receptor it was 54100 nM; on 5-HT2A receptor [2] (agonist) it was 669 nM. For the same compound, the microsomal CLint in the data set “in vitro [3]” is 97.2 µL/min/mg; in “in vitro [4]” it was 60.1 µL/min/mg; in the data set “in vitro [5]”, 681 µL/min/mg. In addition, the half-life in the data set “in vitro [3]” worked out at 14.3 min; in the data set “in vitro [4]” it was 23 min; in the data set “in vitro [5]”, 2 min.

On 5-HT2A receptor [1], `CC[C@@H](C)NC(=O)[C@@H]1C=C2c3cccc4[nH]cc(c34)C[C@H]2N(Cc2ccccc2)C1` [Compound 88, (6aR,9R)-7-benzyl-N—((R)-sec-butyl)-4,6,6a,7,8,9-hexahydroindolo[4,3-fg]quinoline-9-carboxamide] yielded a Ki of 3.1 nM. Also, the Emax on 5-HT2B receptor turned out to be 0.88%; at 5-HT1A receptor (CHO cells with Gα15, max dose), 76.7%; on 5-HT2A receptor [2] (HEK293, max dose) it was 73.6%. Also, the EC50 on 5-HT2B receptor is > 10000 nM; on 5-HT1A receptor, 8710 nM; at 5-HT2A receptor [2] (agonist), 347 nM. Moreover, the microsomal CLint in “in vitro [3]” came out at 455 µL/min/mg; in “in vitro [4]” it was 246 µL/min/mg; in “in vitro [5]”, 774 µL/min/mg. For the same compound, the half-life in “in vitro [3]” was found to be 3 min; in “in vitro [4]” it was 5.6 min; in “in vitro [5]” it was 1.8 min.

Take `CC[C@@H](C)NC(=O)[C@H]1C=C2c3cccc4[nH]cc(c34)C[C@H]2N(Cc2ccccc2)C1` [Compound 88a, (6aR,9S)-7-benzyl-N—((R)-sec-butyl)-4,6,6a,7,8,9-hexahydroindolo[4,3-fg]quinoline-9-carboxamide]: at 5-HT2A receptor [1], the Ki turned out to be 191 nM. The figures for the microsomal CLint in the data set “in vitro [3]”, in “in vitro [4]” and in the data set “in vitro [5]” were 302 µL/min/mg, 830 µL/min/mg and 837 µL/min/mg, respectively. Also, the half-life in “in vitro [3]” stood at 4.6 min; in the data set “in vitro [4]” it was 1.7 min; in the data set “in vitro [5]”, 1.7 min.

`CCN(CC)C(=O)[C@H]1C=C2c3cccc4[nH]cc(c34)C[C@H]2N(CC2CCCCC2)C1` [Compound 89a, (6aR,9S)-7-(cyclohexylmethyl)-N,N-diethyl-4,6,6a,7,8,9-hexahydroindolo[4,3-fg]quinoline-9-carboxamide] had a Ki at 5-HT2A receptor [1] of 208 nM. In addition, the Emax on 5-HT2A receptor [2] (HEK293, max dose) was 3.92%. Further, the EC50 at 5-HT2A receptor [2] (agonist) was > 1000 nM. The microsomal CLint in “in vitro [3]” is 91.5 µL/min/mg; in the data set “in vitro [4]”, 304 µL/min/mg; in “in vitro [5]” it was 743 µL/min/mg. Further, the half-life in “in vitro [3]” worked out at 15.2 min; in the data set “in vitro [4]”, 4.6 min; in the data set “in vitro [5]”, 1.9 min.

Regarding `CCN(CC)C(=O)[C@H]1C=C2c3cccc4[nH]cc(c34)C[C@H]2N(Cc2ccc(C)cc2)C1` [Compound 97a, (6aR,9S)—N,N-diethyl-7-(4-methylbenzyl)-4,6,6a,7,8,9-hexahydroindolo[4,3-fg]quinoline-9-carboxamide], the Ki on 5-HT2A receptor [1] was > 1230 nM. For the same compound, the EC50 at 5-HT2A receptor [2] (agonist) was > 1260 nM.

Turning to `CCN(CC)C(=O)[C@@H]1C=C2c3cccc4[nH]cc(c34)C[C@H]2N(Cc2cccs2)C1` [Compound 104], on 5-HT2A receptor [1], the Ki was determined as 1.42 nM. Besides, the EC50 at 5-HT2B receptor stood at 731 nM; on 5-HT1A receptor, 730 nM; on 5-HT2A receptor [2] (agonist) it was 844 nM.

Values taken from patent US20260317319A1, “NOVEL ERGOLINES AND METHODS OF TREATING MOOD DISORDERS” (Gilgamesh Pharma Inc., priority 2023, published 2026).
